Laboratory results taken from patent publication US12162850B2, “Formulations” (Betagenon AB, priority 2019, dated 2024).

Test: Single dose oral pharmacokinetic studies in rabbits
Format: in vivo
Conditions: male, New Zealand White, rabbit, plasma; for AUC(0-t): 25 mg/kg, 25 mg/kg b.w. oral single dose

Compound `O=C(Nc1nc(=O)n(Cc2ccc(Cl)cc2)s1)c1ccc(Cl)cc1.[Na]` [Compound 2, 4-chloro-N-[2-[(4-chlorophenyl)methyl]-3-oxo-1,2,4-thiadiazol-5-yl]benzamide sodium salt] has an AUC(0-t) (enteric coated capsule with MgO, rabbit plasma (Example 9)) of 1700 ± 248 µg·h/mL, an AUC(0-t) (enteric coated capsule with mannitol, rabbit plasma (Example 10)) of 1470 ± 78.7 µg·h/mL and a Tmax (53 mg/kg, enteric coated capsule with MgO, 53 mg/kg b.w. (equivalent to 50 mg/kg Compound 1) oral single dose, rabbit plasma (Example 11)) of 48 ± 24 h.
